Data from patent US12371454B2, “Cyclic peptide compound having Kras inhibitory action” (priority 2019, dated 2025).
Starred links: 1 amine or outer side, 2 acyl side, 3 side chain; linkers in the order of their positions; H or OH if unused. Positions of bridges follow the written chain, without caps; N, C: chain ends. Non-standard residues stand in square brackets, D forms with d. Residues, ends and D or L forms follow the SMILES beside them. *: point of attachment. hPhe(3,5-F2-4-CF3) = N[C@@H](CCc1cc(F)c(C(F)(F)F)c(F)c1)C(=O)O; hPhe(3-Cl-4-CF3) = N[C@@H](CCc1ccc(C(F)(F)F)c(Cl)c1)C(=O)O; NMePhe(4-CF3) = CN[C@@H](Cc1ccc(C(F)(F)F)cc1)C(=O)O; Thiomorpholino(1,1-dioxo) = O=S1(=O)CCN(*)CC1; NMeAbu(4,4,4-F3) = CN[C@@H](CC(F)(F)F)C(=O)O; NMePhe(4-Me) = CN[C@@H](Cc1ccc(C)cc1)C(=O)O; NMePhe(4-F) = CN[C@@H](Cc1ccc(F)cc1)C(=O)O; X83 = O=C([C@H](Cc1cncc(Br)c1)N[*:1])[*:2]; Phe(3-I) = N[C@@H](Cc1cccc(I)c1)C(=O)O; Pro(4,4-F2) = O=C(O)[C@@H]1CC(F)(F)CN1; NMeY = CN[C@@H](Cc1ccc(O)cc1)C(=O)O; NMeCha = CN[C@@H](CC1CCCCC1)C(=O)O; NMeChg = CN[C@H](C(=O)O)C1CCCCC1; NMeI = CC[C@H](C)[C@H](NC)C(=O)O; NMeD = CN[C@@H](CC(=O)O)C(=O)O; NMeL = CN[C@@H](CC(C)C)C(=O)O; Oxazolidin(3-yl) = C1CN(*)CO1; NMeNva = CCC[C@H](NC)C(=O)O; NMeV = CN[C@H](C(=O)O)C(C)C; d(β3hA) = C[C@@H](N)CC(=O)O; NMeAbu = CC[C@H](NC)C(=O)O; NMeA = CN[C@@H](C)C(=O)O; NMeAib = CNC(C)(C)C(=O)O; Nle = CCCC[C@H](N)C(=O)O; Piperidide = C1CCN(*)CC1; Pra = C#CC[C@H](N)C(=O)O; Pyrrolidide = C1CCN(*)C1; Ac5c = NC1(C(=O)O)CCCC1; Aze = O=C(O)[C@@H]1CCN1; Sar = CNCC(=O)O

Target: T1, Kras and SOS1 (biotin-tagged human Kras loaded with GDP, His-tagged human SOS1) (Homo sapiens, UniProt P01116, G12D)
T1 construct: made in house; host or cells: E. coli (stated for Kras only)
Assay: Protein-protein interaction inhibition between Kras and SOS1 (KrasGl2D-SOS PPI) using AlphaScreen
Assay type: binding
Settings: AlphaScreen; biotin-tagged human Kras loaded with GDP, His-tagged human SOS1; read-out: KRAS G12D-SOS PPI IC50
Method in brief: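 AlphaScreen format: Ni donor beads capture His-SOS1, streptavidin acceptor beads capture biotinylated Kras (E. coli-expressed, GDP-loaded post-purification). Excite 680 nm, read 520-620 nm.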

T1 sequence (P01116 1-188 isoform P01116-2 G12D): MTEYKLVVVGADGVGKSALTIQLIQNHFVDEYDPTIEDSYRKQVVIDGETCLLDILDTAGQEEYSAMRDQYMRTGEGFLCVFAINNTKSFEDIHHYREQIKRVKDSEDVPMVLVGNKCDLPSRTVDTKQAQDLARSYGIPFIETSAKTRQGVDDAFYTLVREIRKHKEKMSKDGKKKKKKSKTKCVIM

| SMILES | IC50 [nM] |
| --- | --- |
| C#CC[C@@H]1NC(=O)[C@H](Cc2cccc(I)c2)NC(=O)CN(C)C(=O)[C@H](Cc2ccc(F)cc2)N(C)C(=O)[C@@H]2CCN2C(=O)[C@H](C)N(C)C(=O)[C@H]([C@@H](C)CC)NC(=O)[C@H](CC(C)C)N(C)C(=O)C[C@@H](C(=O)N2CCCCC2)N(C)C(=O)[C@H](CC(C)C)NC(=O)C(C)(C)N(C)C1=O [Compound 1230] ([NMeL]I[NMeA][Aze][NMePhe(4-F)][Sar][Phe(3-I)][Pra][NMeAib]L[NMeD]-Piperidide; lactam N-11) | 98 |
| CCC[C@H]1C(=O)N[C@@H]([C@@H](C)CC)C(=O)N(C)CC(=O)N(C)CC(=O)N(C)[C@@H](CC2CCCCC2)C(=O)N(C)CC(=O)N[C@@H](CCc2ccc(C(F)(F)F)c(Cl)c2)C(=O)N2CC(F)(F)C[C@H]2C(=O)NC2(CCCC2)C(=O)N(C)[C@@H](C2CCCCC2)C(=O)N(C)[C@H](C(=O)N2CCCC2)CC(=O)N1C [Compound 1232] ([NMeNva]I[Sar][Sar][NMeCha][Sar][hPhe(3-Cl-4-CF3)][Pro(4,4-F2)][Ac5c][NMeChg][NMeD]-Pyrrolidide; lactam N-11) | 0.47 |
| CC[C@H](C)[C@@H]1NC(=O)[C@H](CC(C)C)N(C)C(=O)C[C@@H](C(=O)N2CCS(=O)(=O)CC2)N(C)C(=O)[C@H](C(C)C)N(C)C(=O)C2(CCCC2)NC(=O)[C@@H]2CCCN2C(=O)[C@H](CCc2ccc(C(F)(F)F)c(Cl)c2)NC(=O)CN(C)C(=O)[C@H](CC2CCCCC2)N(C)C(=O)[C@@H]2CCN2C(=O)[C@H](C)N(C)C1=O [Compound 1238] ([NMeL]I[NMeA][Aze][NMeCha][Sar][hPhe(3-Cl-4-CF3)]P[Ac5c][NMeV][NMeD]-{Thiomorpholino(1,1-dioxo)}; lactam N-11) | 9.9 |
| CC[C@H](C)[C@@H]1NC(=O)[C@H](CC(C)C)N(C)C(=O)C[C@@H](C)NC(=O)[C@H](C)N(C)C(=O)C2(CCCC2)NC(=O)[C@@H]2CCCN2C(=O)[C@H](CCc2ccc(C(F)(F)F)c(Cl)c2)NC(=O)CN(C)C(=O)[C@H](Cc2ccc(C)cc2)N(C)C(=O)[C@@H]2CCN2C(=O)[C@H](C)N(C)C1=O [Compound 1239] (cyclo([Ac5c][NMeA][d(β3hA)][NMeL]I[NMeA][Aze][NMePhe(4-Me)][Sar][hPhe(3-Cl-4-CF3)]P)) | 180 |
| CCCC[C@@H]1NC(=O)[C@H](Cc2cncc(Br)c2)NC(=O)CN(C)C(=O)[C@H](Cc2ccc(OC)cc2)N(C)C(=O)[C@@H]2CCN2C(=O)[C@H](C)N(C)C(=O)[C@H]([C@@H](C)CC)NC(=O)[C@H](CC)N(C)C(=O)C[C@@H](C(=O)N2CCCCC2)N(C)C(=O)[C@H](CC(C)C)NC(=O)C(C)(C)N(C)C1=O [Compound 1240] ([NMeAbu]I[NMeA][Aze][NMeY](Me)[Sar][X83][Nle][NMeAib]L[NMeD]-Piperidide; lactam N-11) | 290 |
| CC[C@H](C)[C@@H]1NC(=O)[C@H](CC(C)C)N(C)C(=O)C[C@@H](C(=O)N2CCCCC2)N(C)C(=O)[C@H](C(C)C)N(C)C(=O)C2(CCCC2)NC(=O)[C@H](C)N(C)C(=O)[C@H](CCc2ccc(C(F)(F)F)c(Cl)c2)NC(=O)CN(C)C(=O)[C@H](CC2CCCCC2)N(C)C(=O)[C@@H]2CCN2C(=O)[C@H](C)N(C)C1=O [Compound 1243] ([NMeL]I[NMeA][Aze][NMeCha][Sar][hPhe(3-Cl-4-CF3)][NMeA][Ac5c][NMeV][NMeD]-Piperidide; lactam N-11) | 27 |
| CC[C@H](C)[C@@H]1NC(=O)[C@H](CC(F)(F)F)N(C)C(=O)C[C@@H](C(=O)N2CCCC2)N(C)C(=O)[C@H](C2CCCCC2)N(C)C(=O)C2(CCCC2)NC(=O)[C@@H]2CCCN2C(=O)[C@H](CCc2cc(F)c(C(F)(F)F)c(F)c2)NC(=O)CN(C)C(=O)[C@H](Cc2ccc(C(F)(F)F)cc2)N(C)C(=O)CN(C)C(=O)CN(C)C1=O [Compound 1244] ([NMeAbu(4,4,4-F3)]I[Sar][Sar][NMePhe(4-CF3)][Sar][hPhe(3,5-F2-4-CF3)]P[Ac5c][NMeChg][NMeD]-Pyrrolidide; lactam N-11) | 0.63 |
| CC[C@H](C)[C@@H]1NC(=O)[C@H](CC(F)(F)F)N(C)C(=O)C[C@@H](C(=O)N2CCCC2)N(C)C(=O)[C@H](C2CCCCC2)N(C)C(=O)C2(CCCC2)NC(=O)[C@@H]2CC(F)(F)CN2C(=O)[C@H](CCc2ccc(C(F)(F)F)c(Cl)c2)NC(=O)CN(C)C(=O)[C@H](Cc2ccc(C)cc2)N(C)C(=O)CN(C)C(=O)CN(C)C1=O [Compound 1245] ([NMeAbu(4,4,4-F3)]I[Sar][Sar][NMePhe(4-Me)][Sar][hPhe(3-Cl-4-CF3)][Pro(4,4-F2)][Ac5c][NMeChg][NMeD]-Pyrrolidide; lactam N-11) | 0.54 |
| CC[C@H](C)[C@@H]1NC(=O)[C@H](CC(C)C)N(C)C(=O)C[C@@H](C(=O)N2CCOC2)NC(=O)[C@H]([C@@H](C)CC)N(C)C(=O)C2(CCCC2)NC(=O)[C@@H]2CCCN2C(=O)[C@H](CCc2ccc(C(F)(F)F)c(Cl)c2)NC(=O)CN(C)C(=O)[C@H](CC2CCCCC2)N(C)C(=O)CN(C)C(=O)CN(C)C1=O [Compound 1247] ([NMeL]I[Sar][Sar][NMeCha][Sar][hPhe(3-Cl-4-CF3)]P[Ac5c][NMeI]D-{Oxazolidin(3-yl)}; lactam N-11) | 4.8 |
